Measured values taken from patent publication US6525043B2, “Use of ion channel modulating agents” (NeuroSearch A/S, priority 1999, dated 2003).

Molecular target: T1, Intermediate-conductance Ca2+-activated K+ channels (IK channels) (Homo sapiens, UniProt O15554)
T1 construct: expressed in transfected cells
Assay: Whole-cell patch-clamp recording of ionic current through IK channels stably expressed in HEK293 cells
Format: cell-based
Conditions: hIK in HEK293 cells, voltage-ramps -100 to +100 mV, free Ca2+ 100 nM, room temperature
Description: In this experiment the ionic current through Intermediate-conductance Ca^2+-activated K^+channels (IK channels) is recorded in the whole-cell mode of the patch-clamp technique.
Intermediate-conductance Ca^2+-activated K^+ channels (IK channels) have been cloned from human placenta and stably expressed in HEK293 cells.
Human IK (hIK) was excised from pT3T7 (GenBank Acc. No. N56819) using EcoR I and Not I and sub-cloned into the mammalian expression vector pNS1Z (NeuroSearch), a custom designed derivative of pcDNA3Zeo (InVitrogen) to give the plasmid construct pNS1Z13 hIK. HEK293 tissue culture cells were grown in DMEM (Dulbecco's Modified Eagle Medium) supplemented with 10% FCS (foetal calf serum) at 37° C. in 5% CO2. […]
Experiments are carried out on one of several patch-clamp set-ups. […] Data are stored directly on the hard-disk and analysed by the IGOR software (Wavemetrics, Lake Oswega, Oreg., USA).
The whole-cell configuration of the patch clamp technique is applied. […] Cell capacitance is electronically compensated and the resistance between the pipette and the cell interior (the series resistance, Rs) is measured and compensated for. […]
The intracellular (pipette) solution has the following composition (conc. in mM): 144 KCl, 10 EGTA, 1.4 MgCl2, 5.17 CaCl2, and 10 HEPES (pH=7.2). The calculated free concentration of Ca^2+ in this solution is 100 nM and that of Mg^2+ is 1 mM. […]

Row | SMILES | SC100 (Stimulating Concentration required to induce a 100% increase (doubling) in the basal current) [µM]
1 | ON=C1c2ccccc2-c2ccccc21 [9H-9-fluorenone-oxime] | 0.08
2 | c1ccc2c(c1)[nH]c1ccccc12 [Carbazole, carbazole] | 0.2
